In patent US10501493B2, “Broad spectrum antibiotics” (priority 2011, dated 2019):
≈ marks a conversion by molar mass, not a printed value. Where two headings read alike, the source gives them in different places.

What was measured:
[1] = tested on: C. glutamicum DSM 44475; assay: In vitro antimicrobial activity, MIC by broth micro-dilution; format: cell-based; conditions: Corynebacterium glutamicum, DSM44475, read-out: MIC
[2] = tested on: E. coli MIG1655 LepB(P84L); assay: as above; format: cell-based; conditions: Escherichia coli
Method in brief: (§1)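 CLSI broth micro-dilution MIC against two-fold serial compound dilutions. Inoculum came from colonies grown 24 h at 35° C. or 28° C., suspended in cation-adjusted Mueller Hinton broth at 1*10^7 CFU/ml, of which 5 μl was added per 100 μl well. LepB(P84L) is a proline-mutant SPase strain with heightened arylomycin susceptibility.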

[3] = tested on: E. coli MIG1655; assay: as above; format: cell-based; conditions: Escherichia coli, MIG1655
Method in brief: as §1

[4] = tested on: P. aeruginosa PA01 LepB(P84L); assay: as above; format: cell-based; conditions: Pseudomonas aeruginosa
Method in brief: as §1

[5] = tested on: P. aeruginosa PA01; assay: as above; format: cell-based; conditions: Pseudomonas aeruginosa, read-out: MIC
Method in brief: as §1

[6] = tested on: R. equi DSM 6939; assay: as above; format: cell-based; conditions: Rhodococcus (subgen. Prescottella) equi, DSM6939, read-out: MIC
Method in brief: as §1

[7] = tested on: S. agalactiae ATCC 13813; assay: as above; format: cell-based; conditions: Streptococcus agalactiae, ATCC13813, read-out: MIC
[8] = tested on: S. agalactiae COH-1; assay: as above; format: cell-based; conditions: Streptococcus agalactiae, COH1
[9] = tested on: S. aureus ATCC 29213; assay: as above; format: cell-based; conditions: Staphylococcus aureus, ATCC29213, read-out: MIC
[10] = tested on: S. aureus NCTC-8325 SpsB(P295); assay: as above; format: cell-based; conditions: Staphylococcus aureus, NCTC8325
[11] = tested on: S. epidermidis ATCC 12228; assay: as above; format: cell-based; conditions: Staphylococcus epidermidis, ATCC12228, read-out: MIC
[12] = tested on: S. epidermidis RP62A SpsIB(S29P); assay: as above; format: cell-based; conditions: Staphylococcus epidermidis
[13] = tested on: S. epidermidis RP62A SpsIB(S31P); assay: as above; format: cell-based; conditions: Staphylococcus epidermidis
[14] = tested on: S. epidermidis RP62A; assay: as above; format: cell-based; conditions: Staphylococcus epidermidis; S. epidermidis RP62A; read-out: MIC
[15] = tested on: S. pneumoniae D39; assay: as above; format: cell-based; conditions: Streptococcus pneumoniae; S. pneumoniae D39; read-out: MIC
[16] = tested on: S. pneumoniae R800; assay: as above; format: cell-based; conditions: Streptococcus pneumoniae, read-out: MIC
Method in brief: as §1

[17] = tested on: S. pyogenes ATCC 19615; assay: as above; format: cell-based; conditions: Streptococcus pyogenes, ATCC19615, read-out: MIC
[18] = tested on: S. pyogenes M15448; assay: as above; format: cell-based; conditions: Streptococcus pyogenes
Method in brief: as §1

[19] = molecular target: T1, E. coli SPase (Escherichia coli, UniProt P00803); assay: Steady state binding constant (Kd) determination by fluorescence increase
T1 construct: Full length His-tagged E. coli SPase proteins were expressed in E. coli BL21(DE3); His-tag; made in house; host or cells: E. coli BL21(DE3)
Method: (§2) Full length His-tagged E. coli SPase proteins were expressed in E. coli BL21(DE3) containing the plasmid pET23-lepB, P. A. Smith et al. Chem Biol 2010, 1223-1231. Briefly, saturated overnight cultures grown in 20 ml of Luria-Bertani medium supplemented with ampicillin were subcultures into 1.5 L of Luria-Bertani, and shaken at 37° C. until an optical density at 600 nm of 0.4-0.5 was achieved. Protein expression was induced with Isopropyl β-D-1-thiogalactopyranoside (ITPG) at a final concentration of […], and purified using nickel affinity chromatography. Full length His-tagged S. aureus SPase protein was expressed similarly from E. coli BL21(DE3) containing the plasmid pCDF1-SaSpsB or pCDF1-SaSpsB(P29S) and purified similarly to the E. coli protein with the following exceptions. SPase protein was solubilized using 300 mM NaCl, 20 mM Tris pH 8.06, 5 mM Imidazole, 10% glycerol, 1% Triton X-100, prior to purification in Ni-NTA Superflow resin and resin bound protein was washed in a similar buffer containing 1% Elugent in place of Triton X-100 prior to protein eluted in wash buffer supplemented with 300 mM imidazole. Protein purify was judged to exceed 95% by visual inspection of SDS-PAGE followed by Comassie staining. All protein concentrations were determined by BCA assay.
(§3) Steady state binding constants (Kds) of compounds were determined by measuring an increase in fluorescence (λex=280 nm, λem=405 nm) that occurs upon binding to E. coli or S. aureus SPase protein. Two-fold serial dilutions of compounds were prepared in 100% DMSO, and compounds were diluted into binding buffer consisting of 100 mM NaCl, 20 mM Tris-HCl pH 7.4, 1 mM EDTA, 1% n-octyl-3-glucopyranoside (Anatrace), and 10% glycerol, with the final DMSO concentration equal to 1%. 70 μl of the resulting solutions containing various concentrations of compound in binding buffer were aliquoted into triplicate wells of a black polystyrene 384-well plate. 5 μl of blank solution or E. coli or S. aureus protein at concentrations of 750 or 3750 nM respectively, were added to each set of wells for a given inhibitor concentration. Plates were incubated for 14 hours and fluorescence read on an EnVision Multilable plate reader (Perkin Elmer™). Differences in fluorescence values between wells with and without protein were determined and background corrected for protein auto fluorescence. The corrected fluorescence difference data was fit to the quadratic equilibrium binding curve using the non-linear regression analysis software Solver (Frontline Systems®) run in Excel 2010, (Microsoft®), using experimentally determined quantum efficiency constants to convert fluorescence into nanomoles of protein/compound complex.

[20] = molecular target: T2, S. aureus SPase (Staphylococcus aureus, UniProt P0A070); assay: as above
T2 construct: Full length His-tagged S. aureus SPase protein was expressed similarly; His-tag; made in house; host or cells: E. coli BL21(DE3)
Method: as §2, §3

[21] = S. agalactiae COH-1, read-out: MIC
[22] = S. pyogenes M15448, read-out: MIC

Compound: CCCCCCCCCCCCCCCC(=O)N(C)[C@H](CO)C(=O)N[C@H](C)C(=O)NCC(=O)N(C)[C@@H]1C(=O)N[C@@H](C)C(=O)N[C@H](C(=O)O)Cc2ccc(O)c(c2)-c2cc1ccc2O [Compound 1, arylomycin C16]
- MIC [1]: 8 µg/mL (≈ 9.08 µM)
- MIC [2]: 1 µg/mL (≈ 1.13 µM)
- MIC [3]: > 64 µg/mL
- MIC [4]: 8 µg/mL (≈ 9.08 µM)
- MIC [5]: > 64 µg/mL
- MIC [6]: 16 µg/mL (≈ 18.2 µM)
- MIC [7]: 16 µg/mL (≈ 18.2 µM)
- MIC [8, 21]: > 64 µg/mL
- MIC [9]: > 64 µg/mL
- MIC [10]: 4 µg/mL (≈ 4.54 µM)
- MIC [11]: 2 µg/mL (≈ 2.27 µM)
- MIC [12]: 8 µg/mL (≈ 9.08 µM)
- MIC [13]: > 64 µg/mL
- MIC [14]: 0.3 µg/mL (≈ 0.34 µM)
- MIC [15]: 4 µg/mL (≈ 4.54 µM)
- MIC [16]: 8 µg/mL (≈ 9.08 µM)
- MIC [17]: 16 µg/mL (≈ 18.2 µM)
- MIC [18, 22]: 16 µg/mL (≈ 18.2 µM)
- Kd [19]: 0.075 µM
- Kd [20]: 0.75 µM

Compound: CCCCCCCCCCCCCCCC(=O)N(C)[C@H](CO)C(=O)N[C@H](C)C(=O)NCC(=O)N(C)[C@@H]1C(=O)N[C@@H](C)C(=O)N[C@H](C(=O)N[C@H](C)C(=O)O)Cc2ccc(O)c(c2)-c2cc1ccc2O [Compound 19]
- MIC [1]: 16 µg/mL (≈ 16.8 µM)
- MIC [2]: 8 µg/mL (≈ 8.4 µM)
- MIC [4]: > 64 µg/mL
- MIC [7]: 32 µg/mL (≈ 33.6 µM)
- MIC [8]: > 64 µg/mL
- MIC [9]: > 64 µg/mL
- MIC [10]: > 64 µg/mL
- MIC [11]: 32 µg/mL (≈ 33.6 µM)
- MIC [12]: > 64 µg/mL
- MIC [13]: > 64 µg/mL
- MIC [14]: 8 µg/mL (≈ 8.4 µM)
- MIC [15]: 16 µg/mL (≈ 16.8 µM)
- MIC [16]: 32 µg/mL (≈ 33.6 µM)
- MIC [17]: 16 µg/mL (≈ 16.8 µM)
- MIC ([18]; M15448): 32 µg/mL (≈ 33.6 µM)
- Kd [19]: 2.8 µM
- Kd [20]: 18 µM

Compound: CCCCCCCCCCCCCCCC(=O)N(C)[C@H](CO)C(=O)N[C@H](C)C(=O)NCC(=O)N(C)[C@@H]1C(=O)N[C@@H](C)C(=O)N[C@H](C(=O)N[C@@H](C)C(=O)O)Cc2ccc(O)c(c2)-c2cc1ccc2O [Compound 20]
- MIC [1]: 64 µg/mL (≈ 67.2 µM)
- MIC [2]: 32 µg/mL (≈ 33.6 µM)
- MIC [4]: > 64 µg/mL
- MIC [7]: 32 µg/mL (≈ 33.6 µM)
- MIC [8, 21]: > 64 µg/mL
- MIC [9]: > 64 µg/mL
- MIC [10]: > 64 µg/mL
- MIC [11]: 32 µg/mL (≈ 33.6 µM)
- MIC [12]: 32 µg/mL (≈ 33.6 µM)
- MIC [13]: > 64 µg/mL
- MIC [14]: 4 µg/mL (≈ 4.2 µM)
- MIC [15]: 16 µg/mL (≈ 16.8 µM)
- MIC [16]: 32 µg/mL (≈ 33.6 µM)
- MIC [17]: 32 µg/mL (≈ 33.6 µM)
- MIC [18, 22]: 64 µg/mL (≈ 67.2 µM)
- Kd [19]: 12 µM
- Kd [20]: 7.8 µM

Compound: CCCCCCCCCCCCCCCC(=O)N(C)[C@H](CO)C(=O)N[C@H](C)C(=O)NCC(=O)N(C)[C@@H]1C(=O)N[C@@H](C)C(=O)N[C@H](C(=O)NS(C)(=O)=O)Cc2ccc(O)c(c2)-c2cc1ccc2O [Compound 22]
- MIC [1]: 8 µg/mL (≈ 8.35 µM)
- MIC [2]: 16 µg/mL (≈ 16.7 µM)
- MIC [4]: > 64 µg/mL
- MIC [7]: 32 µg/mL (≈ 33.4 µM)
- MIC [8]: > 64 µg/mL
- MIC [9]: > 64 µg/mL
- MIC [10]: > 64 µg/mL
- MIC [11]: > 64 µg/mL
- MIC [12]: > 64 µg/mL
- MIC [13]: > 64 µg/mL
- MIC [14]: 2 µg/mL (≈ 2.09 µM)
- MIC [15]: 16 µg/mL (≈ 16.7 µM)
- MIC [16]: 16 µg/mL (≈ 16.7 µM)
- MIC [17]: 16 µg/mL (≈ 16.7 µM)
- MIC ([18]; M15448): 16 µg/mL (≈ 16.7 µM)
- Kd [19]: 1 µM
- Kd [20]: 19 µM
